From publication PMC9088311, “Cyclic Thiosulfonates for Thiol-Mediated Uptake: Cascade Exchangers, Transporters, Inhibitors” (JACS Au, 2022)
Values after ≈ are worked out from the molar mass of the structure shown. Like-named read-outs stand apart in the source and are kept apart here.

Experiments:
[1] = tested on: HK cells, transporter 28; assay: HCHT imaging: inhibition of cytosolic delivery of CTO transporter 28; format: cell-based, Human; design: key to inhibition of CTO 28 uptake (heatmap): –: −: inactive; ++: qualitative inhibition of SC2 uptake; settings: for IC50 / IC15: Homo sapiens; for IC50: read-out: IC50 (concentration needed to reach 50% inhibition), transporter 28 5 μM; for IC50 / IC15 / MIC (concentration needed to reach 15% inhibition): inhibitor 1 h
Protocol: (§1) Uptake inhibition was measured by the automated HCHT imaging used already to elaborate on cytosolic delivery. For inhibitor screening, HK cells in multiwell plates were incubated with increasing concentrations of inhibitors, followed by fluorescent transporters 28, 31, and 32 at a constant concentration. […] If inhibitors are removed before the addition of transporters 28, 31, and 32, the method is referred to as “pre-incubation”. This is of interest to minimize exchange between the transporter and the inhibitor but is often problematic because dynamic covalent exchange between the inhibitor and cellular target can also be reversed and thus lost. The complementary “co-incubation” operates without inhibitor removal before the addition of transporters 28, 31, and 32.
(§2) 536/40 nm emission filter, and red with 531/40 nm excitation filter and 593/40 nm emission […]
(§3) 4.3. HCHT Inhibitor Screening
(§4) Pre-Incubation Method. As in ref. S1. HeLa Kyoto cells were seeded at 8 ×10^4 cells/mL in FluoroBrite DMEM + 10% FBS on μ-Plate 96-well Black ibiTreat sterile and incubated at 37 °C with 5% CO 2 for 24 h. Then, the medium was removed and cells were washed with PBS ([…]), fresh FluoroBrite DMEM medium (4 × 150 μL/well) was added into the cells using a plate washer (Biotek EL406®), keeping a final volume of 135 μL/well. Different concentrations of the inhibitors were prepared by serial dilution with 10% final concentration DMSO (10× in PBS). The solution of compounds 4 and 33 was prepared final DMSO concentration of 10% in each dilution (10× in PBS). These inhibitor solutions (10× final concentration), transporter 28 (10× in DMEM), transporters 31 and 32 (10× in PBS) a solution of HOE (100 μg/mL) and PI (10 μg/mL) in PBS were prepared freshly in a 96-well V-bottom plate before adding to the cells. The inhibitor solutions from the V-bottom plate were added to the cells (15 μL/well) in a final volume of 150 μL/well using an electronic multichannel pipette and cells were incubated for 1 h at 37 °C with 5% CO 2. After this incubation, cells were washed again with PBS and DMEM using the plate washer (in the way mentioned above), and transporter 28 , 31 or 32 from the V-bottom plate was added (15 μL/well) to the cells in a final volume of 150 μL/well. A final concentration of each transporter 28 , 31 and 32 was 5 μM, 10 μM and 0.5 μM, respectively, except for the control wells, where only PBS was added (15 μL/well). Cells treated with transporter 28 or 31 were incubated for 30 min, and cells treated with 32 were incubated for 2 h at 37 °C with 5% CO 2. After that, the cells were washed with PBS and DMEM using the plate washer, and the solution of Hoechst 33342 and PI from the V-bottom plate was added (15 μL/well) to the cells in a final volume of 150 μL/well. After 15 min of incubation at 37 °C with 5% CO 2, the cells were washed and kept in clean FluoroBrite
(§5) DMEM. For live cell imaging, samples were kept at 37 °C with 5% CO 2 during the microscope imaging. The distribution of fluorescence stained cells was analyzed without fixing using an […]

[2] = tested on: HeLa Kyoto cells; assay: Relative viability (HOE/PI) in HCHT screening
Protocol: One advantage of HCHT imaging of cellular uptake compared to flow cytometry[38],[42],[43] is that it simultaneously gives information on toxicity and intracellular localization. […] Information on the intracellular localization of reporters can be quantified through segmentation of cellular compartments stained with specific markers.[52]
as §1
Relative cell viability ( RV) for each condition in the presence of inhibitors was calculated […]
of the relative cell viability ( RVrel) to the concentration of inhibitors ( cinhibitor ) was plotted and fitted with Equation (S19) to retrieve the concentration causing 50% cell growth inhibition (RV50) value and the Hill coefficient ( n).

[3] = tested on: HK cells, transporter 31; settings: transporter 31 10 μM, pre-incubation (P), cited from earlier work; for IC50: read-out: IC50 (concentration needed to reach 50% inhibition)
[4] = tested on: HK cells, transporter 32; design: method as in PMID 34173696; settings: transporter 32 0.5 or 1 μM, pre-incubation (P), cited from earlier work; for IC50: read-out: IC50 (concentration needed to reach 50% inhibition)
[5] = in vitro; settings: human
[6] = tested on: HeLa Kyoto cells; settings: with transporter 31; pre-incubation (P); cited from earlier work
[7] = tested on: HK cells, transporter 31; assay: HCHT imaging: inhibition of cytosolic delivery of ETP transporter 31; format: cell-based, Human; settings: inhibitor 1 h; for IC15: read-out: MIC (concentration needed to reach 15% inhibition), transporter 31 10 μM
Protocol: as §1, §2, §3, §4, §5

[8] = tested on: trypsin; assay: Trypsin inhibition (preliminary, not shown); format: biochemical; settings: 50 μM; preliminary results
[9] = target: cathepsin L (Homo sapiens, UniProt P07711); assay: Cathepsin L inhibition (preliminary, not shown); format: biochemical; settings: 50 μM; preliminary results
[10] = target: cathepsin B (Homo sapiens, UniProt P07858); assay: Cathepsin B inhibition (preliminary, not shown); format: biochemical; settings: 50 μM; preliminary results
[11] = tested on: HeLa Kyoto (HK) cells; assay: Cellular uptake of fluorescent transporters (HCHT imaging, SDCM); format: cell-based, Human; settings: 10, 20, 50 μM transporter
Protocol: Cellular uptake was measured by automated high-content high-throughput (HCHT) imaging.[51] This method provides access to biologically meaningful and statistically relevant data from thousands of cells within a very short time. For the uptake monitoring, HeLa Kyoto (HK) cells in multiwell plates were incubated with the fluorescent transporters 28–30 for 1 h, washed, and imaged by spinning disk confocal microscopy (SDCM) to quantify the fluorescent transporters that have entered the cells. […] The better activity of CTOs 28 compared to 29 was consistent with the concept of hydrophobic directing groups, expected to guide CTOs into an aprotic environment within membranes or proteins to activate the sulfinate exchanger and thus turn on dynamic covalent exchange cascades with cellular partners (Figure 2D). The passive diffusion of transporter 28 across the membrane is conceivable but unlikely because this process can be inhibited by other CAXs (see the next section).
4. High-Content High-Throughput (HCHT) Inhibitor Screening […]
The distribution of fluorescence stained cells was analyzed without fixing using an IXM-C automated microscope. 4 images per well were recorded using 10× objective lens, and fluorescent images were acquired with three channels, blue with 377/50 nm excitation filter and 477/60 nm emission filter, green for FITC transporter with 475/34 nm excitation filter and […]

[12] = tested on: A549 human lung alveolar basal epithelium cells overexpressing ACE2 and TMPRSS2; settings: inhibitor 5 μM
[13] = transporter 28 5 μM, pre-incubation (P)
[14] = with transporter 28, pre-incubation (P)
[15] = 1 h, read-out: MIC (concentration needed to reach 15% inhibition), transporter 28 5 μM, co-incubation (C)
[16] = transporter 28 5 μM, co-incubation (C)
[17] = Homo sapiens, 1 h, read-out: IC50 (concentration needed to reach 50% inhibition), transporter 31 10 μM, co-incubation (C)
[18] = Homo sapiens, 1 h, co-incubation (C)
[19] = with transporter 28, co-incubation (C)
[20] = with transporter 31, co-incubation (C)

cathepsin L, sequence (P07711 114-333, species assumed): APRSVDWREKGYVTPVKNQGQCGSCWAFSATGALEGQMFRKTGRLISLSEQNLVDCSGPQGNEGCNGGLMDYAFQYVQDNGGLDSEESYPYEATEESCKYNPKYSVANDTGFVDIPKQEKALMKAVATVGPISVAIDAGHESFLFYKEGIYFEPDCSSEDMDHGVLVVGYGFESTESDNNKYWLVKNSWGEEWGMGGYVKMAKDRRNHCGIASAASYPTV

## CCN1C(=O)C2SSSSC1C(=O)N2CC(=O)O (centres unmarked) [Compound 47, reference compound]
[1]; pre-incubation (P)
  IC50: > 10 µM
[1]; read-out: MIC (concentration needed to reach 15% inhibition), transporter 28 5 μM, pre-incubation (P)
  IC15: > 10 µM
[1]; pre-incubation conditions
  inhibition of CTO 28 uptake (heatmap): –
[1]; [13]
  MIC (concentration needed to reach 15% inhibition): >10 µM
[2]; [14]
  RV50 (concentration needed to lower relative viability by 50%): >10 µM
[3]
  IC50: 1.3 µM
[4]
  IC50: 50 µM
  MIC (concentration needed to reach 15% inhibition): 2 µM (≈ 0.653 µg/mL)
[5]
  viability at 7 h, 50 µM: 70%
[6]
  RV50 (concentration needed to lower relative viability by 50%): 35 µM

## O=C(N[C@H]1CCS(=O)(=O)SC1)N[C@H]1CCS(=O)(=O)SC1 [Compound 35]
[1]; 1 h, co-incubation (C)
  IC50: 25 µM
[1]; [15]
  IC15: 3.5 µM
[1]; [16]
  MIC (concentration needed to reach 15% inhibition): 4 µM
[7]; [17]
  IC50: 51 µM
[7]; [18]
  IC15: 9 µM
[2]; [19]
  RV50 (concentration needed to lower relative viability by 50%): >50 µM
[2]; [20]
  RV50 (concentration needed to lower relative viability by 50%): >100 µM
[8]
  inhibition of trypsin (in words): inhibit only cathepsin B
[9]
  inhibition of cathepsin L (in words): inhibit only cathepsin B
[10]
  inhibition of cathepsin B (in words): inhibit only cathepsin B
[5]
  viability at 7 h, 50 µM: 96%

## CC(C)(C)[Si](C)(C)O[C@H]1CS(=O)(=O)SC[C@@H]1OCC(=O)NCCNC(=S)Nc1ccc(-c2c3ccc(=O)cc-3oc3cc(O)ccc23)c(C(=O)O)c1 [Compound 28]
[11]
  cellular uptake, fluorescence intensity of HK cells (in words): more active than the AspA 30 standard

## O=C(CO[C@H]1CSS(=O)(=O)C[C@@H]1O)NCCNC(=S)Nc1ccc(-c2c3ccc(=O)cc-3oc3cc(O)ccc23)c(C(=O)O)c1 [Compound 29]
[11]
  cellular uptake, fluorescence intensity of HK cells (in words): more active than the AspA 30 standard

## CC#CI1OC(=O)c2ccccc21 [Compound 49, reference compound]
[1]; 1 h, read-out: MIC (concentration needed to reach 15% inhibition), transporter 28 5 μM, pre-incubation (P)
  IC15: 8.7 µM
[1]; pre-incubation (P)
  IC50: 53 µM
[1]; [13]
  MIC (concentration needed to reach 15% inhibition): 9 µM (≈ 2.57 µg/mL)
[2]; [14]
  RV50 (concentration needed to lower relative viability by 50%): >50 µM
[3]
  IC50: 40 µM
  MIC (concentration needed to reach 15% inhibition): 4 µM (≈ 1.14 µg/mL)
[4]
  IC50: 10 µM
  MIC (concentration needed to reach 15% inhibition): 0.3 µM (≈ 0.0858 µg/mL)
[5]
  viability at 7 h, 5 µM: 92%
[6]
  RV50 (concentration needed to lower relative viability by 50%): 60 µM

## CC(=O)/C=C1/C(=O)N(C)c2ccccc21 [Compound 48, super-cinnamaldehyde, reference compound]
[3]
  IC50: 4 µM
  MIC (concentration needed to reach 15% inhibition): <1 µM
[5]
  viability at 7 h, 5 µM: 94%
[6]
  RV50 (concentration needed to lower relative viability by 50%): >20 µM

## CC(C)(C)OC(=O)NCCNC(=O)O[C@H]1CSS(=O)(=O)C[C@H]1O[Si](C)(C)C(C)(C)C (racemic) [Compound 50]
[7]; read-out: IC50 (concentration needed to reach 50% inhibition), transporter 31 10 μM, co-incubation (C)
  IC50: 20 ± 3 µM
[7]; transporter 31 10 μM, co-incubation (C)
  MIC (concentration needed to reach 15% inhibition): 5.6 µM
[2]; [20]
  RV50 (concentration needed to lower relative viability by 50%): ≈ 20 μM
[12]
  RV, relative cell viability: 110 ± 10%

## CC(C)(C)OC(=O)NCCNC(=O)O[C@H]1CSS(=O)(=O)C[C@H]1O [Compound 34]
[1]; 1 h, co-incubation (C)
  IC50: 26 µM
[1]; [15]
  IC15: 1.2 µM
[1]; [16]
  MIC (concentration needed to reach 15% inhibition): 1 µM
[7]; [17]
  IC50: > 100 µM
[7]; [18]
  IC15: 16 µM
[7]; Homo sapiens, 1 h, pre-incubation (P)
  IC15: 3 µM
[7]; Homo sapiens, read-out: IC50 (concentration needed to reach 50% inhibition), transporter 31 10 μM, pre-incubation (P)
  IC50: > 100 µM
[7]; transporter 31 10 μM, pre-incubation (P)
  MIC (concentration needed to reach 15% inhibition): 3 µM (≈ 1.11 µg/mL)
[2]; [19]
  RV50 (concentration needed to lower relative viability by 50%): >50 µM
[2]; [20]
  RV50 (concentration needed to lower relative viability by 50%): >100 µM
[2]; with transporter 31, pre-incubation (P)
  RV50 (concentration needed to lower relative viability by 50%): >100 µM
[8]
  inhibition of trypsin (in words): inhibit only cathepsin B
[9]
  inhibition of cathepsin L (in words): inhibit only cathepsin B
[10]
  inhibition of cathepsin B (in words): inhibit only cathepsin B
[5]
  viability at 7 h, 50 µM: 76%
